What all share (format): physicochemical
Data set [1] is described as follows: Stability / interconversion of crystal forms (XRPD). As to the method:
Compound I was subjected to various crystallization conditions, including solid vapor diffusion, anti-solvent addition, liquid vapor diffusion, slow cooling, slurry conversion at various temperatures, temperature cycling, and slow evaporation. Crystalline forms of Compound I were analyzed by X-ray powder diffraction (XRPD), differential scanning calorimetry (DSC) and thermogravimetric analysis (TGA), while metastable forms were analyzed by XRPD. XRPD was performed with a Panalytical X'Pert3 Powder XRPD with a Si zero-background holder. The 2θ position was calibrated against a Panalytical Si reference standard disc.
Forms II and III only existed in the wet state and no solid was isolated for thermal analyses. Form V solids were obtained, however, Form V changed to Form I at around 50° C. upon drying in a vacuum oven. A summary of isolated forms and conditions is in Table 1-5 and Table 1-6.

Data set [2] in a line: Approximate solubility in single solvents at RT. Particulars: thermodynamic from solid, room temperature. The procedure:
Approximate solubility of Compound I was determined in 20 single solvents at RT. Approximately 2 mg of powder sample was added into a 3-mL glass vial. Corresponding solvents were added stepwise (50 μL→100 μL→300 μL→1000 μL) into each vial until powder solids were completely dissolved visually or a total volume of 1 mL solvent was added. Approximate solubility values were calculated based on sample mass, solvent volume, and experimental observation. Results summarized in Table 3-1 were used to guide subsequent solvent selection in the design of polymorph screening experiments.

Data set [3] is described as follows: Solid state stability evaluation (XRPD, PLM, HPLC purity after storage). Particulars: 30° C./65% RH and 40° C./75% RH, open and closed. The procedure: Agilent 1260 HPLC with VWD detector was utilized and detailed chromatographic conditions for purity analysis are listed ill Table 1-4.
The solid state stability of Compound I was evaluated under conditions of 30° C./65% RH (open dish and closed container) and 40° C./75% RH (open dish and closed container) for 4 weeks. The detailed procedures utilized for stability evaluation are listed: 1) Weighed about 10 mg of Compound I starting material into 3-mL glass vials; 2) For the open dish conditions, covered the vials with Parafilm® and poked 6 holes. For the closed conditions, sealed the vials with caps and kept the vials in the corresponding conditions, respectively; For the condition of 40° C./75% RH, placed the vials in the stability chamber of 40° C./75% RH; For the condition of 30° C./65% RH, placed the vials in the airtight atmosphere generated by saturated aqueous potassium iodide solution in 30° C. bio-chemical; 4) Samples taken for XRPD, PLM, and HPLC purity after 3 days, 1 week, 2 weeks and 4 weeks.
Solid state stability evaluation of Compound I Form I starting material was performed under conditions of 30° C./65% RH (closed and open) and 40° C./75% RH (closed and open). X-ray powder diffraction (XRPD), polarizing microscope (PLM) and HPLC purity were characterized at 4 sampling points (3 days, 1 week, 2 weeks, 4 weeks).
For the single crystal structure determination, 83 single crystal growth experiments were performed by different methods including slow evaporation, liquid vapor diffusion, slow cooling, heating-cooling and solvent-thermal synthesis. The stability evaluation experiments in 40° C./75% RH condition were performed using stability chamber, while the 30° C./65% RH condition was set up by saturated aqueous potassium iodide solution in 30° C. bio-chemical incubator.

≈ marks a conversion by molar mass, not a printed value.

Usually solubility stands for how much of the substance goes into solution per volume.

Turning to `OCCOCCOCCOCCOc1ccc(-c2nc3ccccc3s2)cc1` [Compound I Form II, 2-(2-(2-(2-(4-(benzo[d]thiazol-2-yl)phenoxy)ethoxy)ethoxy)ethoxy)ethan-1-ol], the “Stability of crystal form (conversion on storage, air exposure or drying)” value (“Stability of crystal form” below) in data set [1] (listed as Form II) is “changed to a mixture of Form II and C or a mixture of Form III and Form V upon storage”.
In the case of `OCCOCCOCCOCCOc1ccc(-c2nc3ccccc3s2)cc1` [Compound I Form III, 2-(2-(2-(2-(4-(benzo[d]thiazol-2-yl)phenoxy)ethoxy)ethoxy)ethoxy)ethan-1-ol], the “Stability of crystal form” value in data set [1] (listed as Form III) is recorded as “quickly converted to Form I upon exposure to open air”.
In the case of `OCCOCCOCCOCCOc1ccc(-c2nc3ccccc3s2)cc1` [Compound I Form V, 2-(2-(2-(2-(4-(benzo[d]thiazol-2-yl)phenoxy)ethoxy)ethoxy)ethoxy)ethan-1-ol], in data set [1] (listed as Form V), the “Stability of crystal form” value was “converted to Form I upon vacuum drying at ˜50 °C”.
`OCCOCCOCCOCCOc1ccc(-c2nc3ccccc3s2)cc1` [Compound I, 2-(2-(2-(2-(4-(benzo[d]thiazol-2-yl)phenoxy)ethoxy)ethoxy)ethoxy)ethan-1-ol]: the solubility in data set [2] (organic solvent or mixture, 1,4-dioxane) was over 32 mg/mL; in data set [2] (organic solvent or mixture, 2-MeTHF) it was 20 to 40 mg/mL (≈ 49.6 to 99.1 mM); in data set [2] (organic solvent or mixture, Acetone) it was 6 to 18 mg/mL (≈ 14.9 to 44.6 mM); in data set [2] (organic solvent or mixture, Acetonitrile) it was 8 to 24 mg/mL (≈ 19.8 to 59.5 mM); in data set [2] (organic solvent or mixture, CPME) it was under 2.6 mg/mL; in data set [2] (organic solvent or mixture, DCM) it was over 38 mg/mL. The solubility in data set [2] (organic solvent or mixture, DMF) was over 44 mg/mL; in data set [2] (organic solvent or mixture, DMSO), 18 to 36 mg/mL (≈ 44.6 to 89.2 mM); in data set [2] (organic solvent or mixture, EtOAc) it was 20 to 40 mg/mL (≈ 49.6 to 99.1 mM); in data set [2] (organic solvent or mixture, EtOH), 7.3 to 22 mg/mL (≈ 18.1 to 54.5 mM); in data set [2] (organic solvent or mixture, Heptane), under 2.2 mg/mL; in data set [2] (organic solvent or mixture, IPA), under 1.9 mg/mL. The solubility in data set [2] (organic solvent or mixture, IPAc) is 1.7 to 5.7 mg/mL (≈ 4.21 to 14.1 mM); in data set [2] (organic solvent or mixture, MEK), 18 to 36 mg/mL (≈ 44.6 to 89.2 mM); in data set [2] (organic solvent or mixture, MIBK), 2.5 to 8.3 mg/mL (≈ 6.2 to 20.6 mM); in data set [2] (organic solvent or mixture, MTBE), under 2 mg/mL; in data set [2] (organic solvent or mixture, MeOH), 21 to 42 mg/mL (≈ 52 to 104 mM); in data set [2] (organic solvent or mixture, THF), over 36 mg/mL. Moreover, the solubility in data set [2] (organic solvent or mixture, Toluene) was 6 to 18 mg/mL (≈ 14.9 to 44.6 mM); in data set [2] (water, H2O), under 1.8 mg/mL. In data set [3] (4 weeks), the “HPLC purity decrease after storage” value is “no significant HPLC purity decrease was observed”. In addition, the “Form change after storage (XRPD)” value in data set [3] (up to 4 weeks) was “no form change was observed”.

The values are drawn from patent US12486287B2, “Solid forms of a promoter of spinogenesis” (Spinogenix, Inc., priority 2019, dated 2025).
